The values that follow come from article PMC11831190 (MedComm, 2025).

This series in a line: Pharmacokinetic evaluation of Oraxol in patients with MBC (weeks 1 and 4). Format: in vivo, human. Particulars: for AUC(0-t) / Cmax / Tmax: human, in vivo, oral; for AUC(0-t): read-out: AUC (0-52) Mean. The protocol:
Similarly, patients were readmitted to the clinic the preceding night dosing on week 4, day 1, and remained at the clinic until pharmacokinetic sampling was completed on Day 3 of that week.
Analytical determination of pharmacokinetic parameters was conducted in patients who provided at least one post‐dose blood sample. The study weeks were counted consecutively starting from week 1 for pharmacokinetic sampling. However, for week 4 pharmacokinetic sampling, a delay was permitted at the investigator's discretion to allow the relevant time to recuperate from any intolerable toxicity, if present. In the instance of treatment postponement, pharmacokinetic samples for week 4 were collected immediately after treatment resumed, regardless of whether a dose reduction were applied.
The pharmacokinetic parameters were synthesized utilizing descriptive data analysis, including mean, standard deviation, median, minimum, and maximum values. What is more, summaries of pharmacokinetic parameters included the geometric average and the coefficient of variation. Individual concentration data and corresponding area under the AUC timepoint data were tabulated in both nominal and actual sampling times for all patients. The concentration‐timepoint data (in actual times) were presented graphically for each subject.
The pharmacokinetic parameters were analyzed using logarithmic transformation, followed by statistical evaluation through analysis of variance, considering subject and treatment effects. […] This analysis allowed for the assessment of the pharmacokinetic profile of Oraxol over the course of treatment.

Where two headings read alike, the source gives them in different places.

The Cmax is the maximum level reached in the sampled fluid or tissue. By Tmax is commonly meant the time at which the peak concentration occurs. With `CC(=O)O[C@H]1C(=O)[C@@]2(C)[C@H]([C@H](OC(=O)c3ccccc3)[C@]3(O)C[C@H](OC(=O)[C@H](O)[C@@H](NC(=O)c4ccccc4)c4ccccc4)C(C)=C1C3(C)C)[C@]1(OC(C)=O)CO[C@@H]1C[C@@H]2O` [Paclitaxel], the Tmax (0-24) Median (Study day 1) is 1 h and the Tmax (0-24) Median (Study day 22) is 1 h. For the same compound, the AUC(0-t) is, setting by setting: (Study day 1) 3540 ng·h/mL; (Study day 22) 3520 ng·h/mL. Besides, the Cmax is, setting by setting: (Study day 1, read-out: Cmax (0-24) Mean) 288 ng/mL; (Study day 1, read-out: Cmax (24-48) Mean) 338 ng/mL; (Study day 1, read-out: Cmax (48-52) Mean) 324 ng/mL; (Study day 1, read-out: Cmax Mean) 404 ng/mL; (Study day 22, read-out: Cmax (0-24) Mean) 329 ng/mL; (Study day 22, read-out: Cmax (24-48) Mean) 289 ng/mL. Also, the Cmax by setting is: (Study day 22, read-out: Cmax (48-52) Mean) 313 ng/mL; (Study day 22, read-out: Cmax Mean) 398 ng/mL. The Tmax turned out to be 25.5 h (Study day 1, read-out: Tmax (24-48) Median); 49.3 h (Study day 1, read-out: Tmax (48-52) Median); 25 h (Study day 22, read-out: Tmax (24-48) Median); 49 h (Study day 22, read-out: Tmax (48-52) Median).
Turning to `COc1cc2c(cc1OC)CN(CCc1ccc(-n3nnc(-c4cc(OC)c(OC)cc4NC(=O)c4cc(=O)c5ccccc5o4)n3)cc1)CC2.CS(=O)(=O)O.O` [HM30181A, HM30181A methanesulfonate monohydrate], the Tmax (0-24) Median is 5 h (Study day 1) and 4.5 h (Study day 22).
